Measured values as given in ChEMBL document CHEMBL4507279, “Data for DCP probe BI-9627” (2021).

Assays:
[1] = biological target: Mitogen-activated protein kinase kinase kinase kinase 2 (Homo sapiens) (UniProt Q12851); settings: Compound concentration 1000.0 nM
[2] = biological target: Phosphatidylinositol 4-phosphate 3-kinase C2 domain-containing subunit beta (Homo sapiens) (UniProt O00750); settings: Compound concentration 1000.0 nM
[3] = tested on: Epidermal growth factor receptor (Homo sapiens), P00533 [G719C]; settings: Compound concentration 1000.0 nM
[4] = tested on: Phosphatidylinositol 4,5-bisphosphate 3-kinase catalytic subunit alpha isoform (Homo sapiens), P42336 [E545K]; settings: Compound concentration 1000.0 nM
[5] = tested on: Tyrosine-protein kinase ABL1 (Homo sapiens), P00519 [Q252H]; settings: Compound concentration 1000.0 nM
[6] = biological target: Mitogen-activated protein kinase kinase kinase 20 (Homo sapiens) (UniProt Q9NYL2); settings: Compound concentration 1000.0 nM
[7] = biological target: NUAK family SNF1-like kinase 1 (Homo sapiens) (UniProt O60285); settings: Compound concentration 1000.0 nM
[8] = biological target: Casein kinase II subunit alpha' (Homo sapiens) (UniProt P19784); settings: Compound concentration 1000.0 nM
[9] = biological target: Proto-oncogene tyrosine-protein kinase Src (Homo sapiens) (UniProt P12931); settings: Compound concentration 1000.0 nM
[10] = biological target: T1, Alpha-1A adrenergic receptor (Homo sapiens) (UniProt P35348); settings: Compound concentration 10.0 uM
T1 sequence (whole entry): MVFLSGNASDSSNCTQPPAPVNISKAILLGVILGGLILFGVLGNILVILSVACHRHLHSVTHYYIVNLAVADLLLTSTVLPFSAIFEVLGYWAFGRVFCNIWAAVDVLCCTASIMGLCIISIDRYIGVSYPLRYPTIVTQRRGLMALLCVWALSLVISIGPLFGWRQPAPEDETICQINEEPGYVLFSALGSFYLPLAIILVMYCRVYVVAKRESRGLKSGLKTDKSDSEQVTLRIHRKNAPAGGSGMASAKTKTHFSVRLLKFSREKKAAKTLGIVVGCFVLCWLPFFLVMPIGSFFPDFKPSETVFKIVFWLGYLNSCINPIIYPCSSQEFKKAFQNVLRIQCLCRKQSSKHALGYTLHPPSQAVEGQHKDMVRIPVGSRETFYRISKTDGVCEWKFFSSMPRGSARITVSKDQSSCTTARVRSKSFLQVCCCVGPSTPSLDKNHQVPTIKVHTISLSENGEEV

[11] = biological target: Phosphatidylinositol 5-phosphate 4-kinase type-2 gamma (Homo sapiens) (UniProt Q8TBX8); settings: Compound concentration 1000.0 nM
[12] = biological target: Serine/threonine-protein kinase PLK1 (Homo sapiens) (UniProt P53350); settings: Compound concentration 1000.0 nM
[13] = biological target: BDNF/NT-3 growth factors receptor (Homo sapiens) (UniProt Q16620); settings: Compound concentration 1000.0 nM
[14] = biological target: Mast/stem cell growth factor receptor Kit (Homo sapiens) (UniProt P10721); settings: Compound concentration 1000.0 nM
[15] = biological target: Leucine-rich repeat serine/threonine-protein kinase 2 (Homo sapiens) (UniProt Q5S007); settings: Compound concentration 1000.0 nM
[16] = biological target: Mitogen-activated protein kinase kinase kinase 9 (Homo sapiens) (UniProt P80192); settings: Compound concentration 1000.0 nM
[17] = biological target: Serine/threonine-protein kinase MAK (Homo sapiens) (UniProt P20794); settings: Compound concentration 1000.0 nM
[18] = biological target: Receptor-interacting serine/threonine-protein kinase 4 (Homo sapiens) (UniProt P57078); settings: Compound concentration 1000.0 nM
[19] = biological target: Cyclin-dependent kinase 18 (Homo sapiens) (UniProt Q07002); settings: Compound concentration 1000.0 nM
[20] = biological target: Angiopoietin-1 receptor (Homo sapiens) (UniProt Q02763); settings: Compound concentration 1000.0 nM
[21] = biological target: 5'-AMP-activated protein kinase catalytic subunit alpha-2 (Homo sapiens) (UniProt P54646); settings: Compound concentration 1000.0 nM
[22] = tested on: Mast/stem cell growth factor receptor Kit (Homo sapiens), P10721 [V559D]; settings: Compound concentration 1000.0 nM
[23] = tested on: Tyrosine-protein kinase ABL1 (Homo sapiens), P00519 [Q252H]; settings: Compound concentration 1000.0 nM; remark: listed apart in the source
[24] = biological target: T2, Muscarinic acetylcholine receptor M1 (Homo sapiens) (UniProt P11229); settings: Compound concentration 10.0 uM
T2 sequence (whole entry): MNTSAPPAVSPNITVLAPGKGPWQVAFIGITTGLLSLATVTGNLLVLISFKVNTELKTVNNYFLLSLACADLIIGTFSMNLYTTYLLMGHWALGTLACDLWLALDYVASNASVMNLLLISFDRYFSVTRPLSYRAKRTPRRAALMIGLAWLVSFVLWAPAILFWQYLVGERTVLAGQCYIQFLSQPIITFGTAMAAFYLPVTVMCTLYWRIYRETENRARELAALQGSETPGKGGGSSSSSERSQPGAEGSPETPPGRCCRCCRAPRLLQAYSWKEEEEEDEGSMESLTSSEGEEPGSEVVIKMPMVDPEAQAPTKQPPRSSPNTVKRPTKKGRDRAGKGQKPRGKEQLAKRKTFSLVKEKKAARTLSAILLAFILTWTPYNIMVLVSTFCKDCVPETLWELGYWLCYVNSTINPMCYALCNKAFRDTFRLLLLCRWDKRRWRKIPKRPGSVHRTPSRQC

[25] = tested on: Receptor-type tyrosine-protein kinase FLT3 (Homo sapiens), P36888 [N841I]; settings: Compound concentration 1000.0 nM
[26] = biological target: Rhodopsin kinase GRK7 (Homo sapiens) (UniProt Q8WTQ7); settings: Compound concentration 1000.0 nM
[27] = biological target: Ephrin type-A receptor 3 (Homo sapiens) (UniProt P29320); settings: Compound concentration 1000.0 nM
[28] = biological target: Tyrosine-protein kinase receptor UFO (Homo sapiens) (UniProt P30530); settings: Compound concentration 1000.0 nM
[29] = biological target: cAMP-dependent protein kinase catalytic subunit beta (Homo sapiens) (UniProt P22694); settings: Compound concentration 1000.0 nM
[30] = biological target: SNF-related serine/threonine-protein kinase (Homo sapiens) (UniProt Q9NRH2); settings: Compound concentration 1000.0 nM
[31] = biological target: Phosphorylase b kinase regulatory subunit alpha, liver isoform (Homo sapiens) (UniProt P46019); settings: Compound concentration 1000.0 nM
[32] = biological target: Microtubule-associated serine/threonine-protein kinase 1 (Homo sapiens) (UniProt Q9Y2H9); settings: Compound concentration 1000.0 nM
Chain of Microtubule-associated serine/threonine-protein kinase 1 (Homo sapiens) (Q9Y2H9 whole entry, looked up): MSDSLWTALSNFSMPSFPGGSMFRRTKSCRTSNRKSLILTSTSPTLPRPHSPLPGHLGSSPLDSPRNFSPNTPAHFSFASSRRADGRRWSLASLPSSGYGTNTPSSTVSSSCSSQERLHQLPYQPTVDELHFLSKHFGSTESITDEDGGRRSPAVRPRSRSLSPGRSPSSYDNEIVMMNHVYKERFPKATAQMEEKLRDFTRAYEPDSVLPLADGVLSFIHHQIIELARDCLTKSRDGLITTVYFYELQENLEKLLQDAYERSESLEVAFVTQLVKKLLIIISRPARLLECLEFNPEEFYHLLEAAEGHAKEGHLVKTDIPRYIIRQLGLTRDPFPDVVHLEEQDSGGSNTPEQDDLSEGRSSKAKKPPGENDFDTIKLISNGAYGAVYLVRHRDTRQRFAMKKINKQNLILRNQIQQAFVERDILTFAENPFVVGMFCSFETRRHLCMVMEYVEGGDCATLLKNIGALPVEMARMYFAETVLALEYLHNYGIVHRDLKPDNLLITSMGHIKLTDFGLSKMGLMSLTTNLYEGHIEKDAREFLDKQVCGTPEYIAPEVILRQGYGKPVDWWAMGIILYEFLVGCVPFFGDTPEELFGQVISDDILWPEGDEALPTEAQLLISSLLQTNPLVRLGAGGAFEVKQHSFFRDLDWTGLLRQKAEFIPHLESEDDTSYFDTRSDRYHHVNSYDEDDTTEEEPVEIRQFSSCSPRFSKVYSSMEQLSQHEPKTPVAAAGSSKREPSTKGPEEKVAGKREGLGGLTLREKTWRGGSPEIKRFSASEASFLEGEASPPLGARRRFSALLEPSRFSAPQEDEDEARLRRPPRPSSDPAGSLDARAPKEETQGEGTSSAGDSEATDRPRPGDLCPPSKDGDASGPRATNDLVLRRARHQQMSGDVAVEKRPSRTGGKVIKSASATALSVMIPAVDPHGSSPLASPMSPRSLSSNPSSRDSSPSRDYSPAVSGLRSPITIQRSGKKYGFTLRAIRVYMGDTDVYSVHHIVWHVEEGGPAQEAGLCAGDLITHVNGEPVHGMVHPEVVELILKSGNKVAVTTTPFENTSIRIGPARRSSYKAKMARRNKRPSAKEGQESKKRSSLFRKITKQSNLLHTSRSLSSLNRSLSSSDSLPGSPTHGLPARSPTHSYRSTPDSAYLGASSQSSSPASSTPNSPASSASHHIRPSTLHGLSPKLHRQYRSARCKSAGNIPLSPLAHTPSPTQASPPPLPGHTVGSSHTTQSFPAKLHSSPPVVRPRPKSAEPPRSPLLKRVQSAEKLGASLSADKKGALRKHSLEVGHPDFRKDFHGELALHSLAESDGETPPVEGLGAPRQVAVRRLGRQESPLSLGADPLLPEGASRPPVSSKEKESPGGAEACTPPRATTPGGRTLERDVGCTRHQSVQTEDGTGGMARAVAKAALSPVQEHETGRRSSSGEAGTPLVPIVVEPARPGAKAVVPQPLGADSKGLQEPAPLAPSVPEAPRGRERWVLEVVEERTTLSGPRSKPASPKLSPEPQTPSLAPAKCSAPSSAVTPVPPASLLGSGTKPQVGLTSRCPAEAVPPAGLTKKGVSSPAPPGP

Chain of Mast/stem cell growth factor receptor Kit (Homo sapiens), P10721 [V559D] (P10721 whole entry V559D): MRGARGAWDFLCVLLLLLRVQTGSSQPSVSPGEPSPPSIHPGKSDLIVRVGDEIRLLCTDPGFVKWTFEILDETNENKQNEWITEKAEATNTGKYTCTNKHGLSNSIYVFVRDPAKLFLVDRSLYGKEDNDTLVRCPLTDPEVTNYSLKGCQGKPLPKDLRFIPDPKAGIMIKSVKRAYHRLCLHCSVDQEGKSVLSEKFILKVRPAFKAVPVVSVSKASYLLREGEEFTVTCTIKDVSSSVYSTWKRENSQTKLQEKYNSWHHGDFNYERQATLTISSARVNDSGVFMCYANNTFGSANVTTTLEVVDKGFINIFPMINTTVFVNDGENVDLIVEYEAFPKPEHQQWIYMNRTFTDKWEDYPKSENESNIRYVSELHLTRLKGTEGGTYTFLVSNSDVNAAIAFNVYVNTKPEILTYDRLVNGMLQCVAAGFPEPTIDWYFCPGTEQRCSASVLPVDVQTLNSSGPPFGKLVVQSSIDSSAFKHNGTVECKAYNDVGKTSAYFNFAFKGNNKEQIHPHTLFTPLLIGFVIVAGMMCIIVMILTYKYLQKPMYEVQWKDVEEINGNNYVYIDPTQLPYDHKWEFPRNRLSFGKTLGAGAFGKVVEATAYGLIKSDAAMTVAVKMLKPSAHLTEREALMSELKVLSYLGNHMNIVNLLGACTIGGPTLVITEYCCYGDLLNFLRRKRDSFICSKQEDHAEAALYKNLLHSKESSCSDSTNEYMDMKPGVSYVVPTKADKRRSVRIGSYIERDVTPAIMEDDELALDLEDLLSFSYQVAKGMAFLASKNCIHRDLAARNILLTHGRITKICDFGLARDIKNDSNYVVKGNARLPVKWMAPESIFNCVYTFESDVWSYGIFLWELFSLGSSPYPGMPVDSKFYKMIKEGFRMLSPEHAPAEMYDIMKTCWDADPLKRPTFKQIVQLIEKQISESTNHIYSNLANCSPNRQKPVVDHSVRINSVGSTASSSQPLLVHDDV
Chain of Receptor-interacting serine/threonine-protein kinase 4 (Homo sapiens) (P57078 whole entry): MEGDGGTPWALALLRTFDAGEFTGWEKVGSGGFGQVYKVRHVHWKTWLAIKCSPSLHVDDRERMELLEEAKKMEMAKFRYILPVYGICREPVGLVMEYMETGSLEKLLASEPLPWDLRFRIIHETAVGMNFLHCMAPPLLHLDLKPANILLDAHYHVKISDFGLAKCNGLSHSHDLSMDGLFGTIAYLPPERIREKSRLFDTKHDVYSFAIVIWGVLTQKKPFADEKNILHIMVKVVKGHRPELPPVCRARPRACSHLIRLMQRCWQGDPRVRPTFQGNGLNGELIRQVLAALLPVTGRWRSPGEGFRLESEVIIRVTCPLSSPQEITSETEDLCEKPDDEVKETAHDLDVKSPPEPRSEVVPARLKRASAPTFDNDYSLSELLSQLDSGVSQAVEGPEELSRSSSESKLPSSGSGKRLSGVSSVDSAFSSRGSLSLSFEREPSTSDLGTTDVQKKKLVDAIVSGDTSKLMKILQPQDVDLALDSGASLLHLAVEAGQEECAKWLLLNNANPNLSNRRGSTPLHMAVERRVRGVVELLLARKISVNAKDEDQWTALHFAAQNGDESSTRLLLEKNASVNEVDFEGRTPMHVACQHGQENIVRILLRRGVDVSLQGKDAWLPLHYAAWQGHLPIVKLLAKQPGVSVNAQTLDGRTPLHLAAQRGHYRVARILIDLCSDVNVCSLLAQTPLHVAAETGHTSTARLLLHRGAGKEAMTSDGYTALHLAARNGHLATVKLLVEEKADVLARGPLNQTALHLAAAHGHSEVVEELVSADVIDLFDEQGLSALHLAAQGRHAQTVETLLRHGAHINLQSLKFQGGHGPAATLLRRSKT
Chain of BDNF/NT-3 growth factors receptor (Homo sapiens) (Q16620 32-822 limits assumed): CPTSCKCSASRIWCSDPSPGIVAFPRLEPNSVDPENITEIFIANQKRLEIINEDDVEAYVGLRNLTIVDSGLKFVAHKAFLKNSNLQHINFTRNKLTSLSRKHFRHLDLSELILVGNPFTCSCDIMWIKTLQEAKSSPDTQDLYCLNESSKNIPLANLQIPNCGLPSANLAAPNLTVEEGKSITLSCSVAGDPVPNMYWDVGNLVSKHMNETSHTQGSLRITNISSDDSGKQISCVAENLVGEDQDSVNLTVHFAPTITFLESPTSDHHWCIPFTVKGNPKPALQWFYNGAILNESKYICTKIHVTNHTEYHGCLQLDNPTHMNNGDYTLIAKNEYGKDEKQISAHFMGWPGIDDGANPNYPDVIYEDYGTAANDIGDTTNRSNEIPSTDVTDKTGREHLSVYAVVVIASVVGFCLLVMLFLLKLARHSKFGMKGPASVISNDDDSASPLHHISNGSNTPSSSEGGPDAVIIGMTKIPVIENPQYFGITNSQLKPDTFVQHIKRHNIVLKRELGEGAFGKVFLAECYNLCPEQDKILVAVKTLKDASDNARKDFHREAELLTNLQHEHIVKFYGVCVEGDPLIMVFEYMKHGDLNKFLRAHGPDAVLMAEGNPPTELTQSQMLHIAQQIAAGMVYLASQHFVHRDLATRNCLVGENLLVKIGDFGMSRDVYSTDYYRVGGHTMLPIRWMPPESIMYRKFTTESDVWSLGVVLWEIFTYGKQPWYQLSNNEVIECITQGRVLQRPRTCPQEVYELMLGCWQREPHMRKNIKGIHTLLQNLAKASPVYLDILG
Chain of Mitogen-activated protein kinase kinase kinase 20 (Homo sapiens) (Q9NYL2 2-800 limits assumed): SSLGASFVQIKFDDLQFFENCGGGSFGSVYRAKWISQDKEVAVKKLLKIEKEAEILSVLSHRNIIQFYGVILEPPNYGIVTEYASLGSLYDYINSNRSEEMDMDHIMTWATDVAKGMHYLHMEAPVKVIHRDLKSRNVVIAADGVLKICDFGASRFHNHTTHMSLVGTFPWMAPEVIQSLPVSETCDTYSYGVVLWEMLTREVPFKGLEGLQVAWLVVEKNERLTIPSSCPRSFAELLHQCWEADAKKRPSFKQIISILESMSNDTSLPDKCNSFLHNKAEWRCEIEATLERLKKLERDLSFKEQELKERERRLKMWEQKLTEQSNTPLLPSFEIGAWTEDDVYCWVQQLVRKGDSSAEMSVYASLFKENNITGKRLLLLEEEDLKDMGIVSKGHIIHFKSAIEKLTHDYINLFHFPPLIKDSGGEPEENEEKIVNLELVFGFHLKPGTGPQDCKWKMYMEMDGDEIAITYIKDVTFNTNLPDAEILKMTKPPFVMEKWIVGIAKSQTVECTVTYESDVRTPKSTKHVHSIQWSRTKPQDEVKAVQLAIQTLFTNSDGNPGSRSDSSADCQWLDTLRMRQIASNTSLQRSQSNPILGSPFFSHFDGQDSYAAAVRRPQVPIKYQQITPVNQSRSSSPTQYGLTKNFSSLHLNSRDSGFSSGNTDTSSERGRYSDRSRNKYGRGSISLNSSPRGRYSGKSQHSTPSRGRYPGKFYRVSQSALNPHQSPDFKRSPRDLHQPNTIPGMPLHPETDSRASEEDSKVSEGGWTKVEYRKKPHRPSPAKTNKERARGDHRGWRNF
Chain of Mast/stem cell growth factor receptor Kit (Homo sapiens) (P10721 whole entry): as the sequence (P10721 whole entry V559D) above, with D559V counted along it

| Compound | residual activity [1] [%] | residual activity [2] [%] | residual activity [3] [%] | residual activity [4] [%] | residual activity [5] [%] | residual activity [6] [%] | residual activity [7] [%] | residual activity [8] [%] | residual activity [9] [%] | inhibition [10] [%] | residual activity [11] [%] | residual activity [12] [%] | residual activity [13] [%] | residual activity [14] [%] | residual activity [15] [%] | residual activity [16] [%] | residual activity [17] [%] | residual activity [18] [%] | residual activity [19] [%] | residual activity [20] [%] | further results |
| --- | --- | --- | --- | --- | --- | --- | --- | --- | --- | --- | --- | --- | --- | --- | --- | --- | --- | --- | --- | --- | --- |
| CC(=O)N1CCC(c2ccc(C(=O)NC(=N)N)cc2C(F)(F)F)CC1 [BI 9627] | 100 | 95 | 100 | 76 | 79 | 100 | 100 | 100 | 100 | 6.05 | 100 | 90 | 100 | 95 | 100 | 100 | 79 | 76 | 94 | 96 | residual activity [21]: 100%; residual activity [22]: 100%; residual activity [23]: 100%; inhibition [24]: 12.4%; residual activity [25]: 100%; residual activity [26]: 97%; residual activity [27]: 100%; residual activity [28]: 100%; residual activity [29]: 100%; residual activity [30]: 100%; residual activity [31]: 100%; residual activity [32]: 49% |
| CC(=O)N1CCC(c2ccc(C(=O)NC3=NCCN3)cc2C(F)(F)F)CC1 [BI 0054] | 100 | 50 | 100 | 87 | 88 | 88 | 98 | 100 | 99 | -5.1 | 94 | 88 | 100 | 100 | 100 | 100 | 61 | 64 | 100 | 100 | residual activity [21]: 100%; residual activity [22]: 100%; residual activity [23]: 86%; inhibition [24]: -7.86%; residual activity [25]: 94%; residual activity [26]: 87%; residual activity [27]: 95%; residual activity [28]: 100%; residual activity [29]: 100%; residual activity [30]: 98%; residual activity [31]: 100%; residual activity [32]: 87% |
